We go through five substances from paper PMC5789083, “Mechanisms driving the antibacterial and antibiofilm properties of Hp1404 and its analogue peptides against multidrug-resistant Pseudomonas aeruginosa” (Scientific Reports, 2018).

Data set [1] has as its system Pseudomonas aeruginosa and MRPA strains. Kind of data set: microbe, parasite or virus in culture. It counts as cell-based. The note with it: broth micro-dilution, 37 °C, 18–24 h. An excerpt:
Gram-negative (Pseudomonas aeruginosa ATCC 27853) bacterial strains were obtained from the ATCC (American Type Culture Collection; Manassas, VA, USA). Multidrug-resistant strains (Pseudomonas aeruginosa 138, 431, 434, 557, 559, 778, 1034, 1162, 3290, 3399, 3592, 3904, 4007, 4319, 4891, 5018, and 671973) were obtained from the Chonnam National University Hospital (Gwangju, South Korea).
(§1) We examined the activity of each peptide against both pseudomonas aeruginosa and multidrug-resistant strains. The minimal inhibitory concentrations (MICs) of peptides were determined using the broth micro-dilution assay as described previously. Briefly, bacterial strains were cultivated with shaking overnight at 37 °C. The next day, they were diluted to a density of 2 × 10^5 CFU/mL with growth medium. Peptides were serially diluted with 10 mM sodium phosphate buffer. 50 µL bacterial aliquots were mixed with an equal volume of peptide solution, and incubated at 37 °C for 18–24 h. Inhibition of bacterial growth was determined by measuring the absorbance at 600 nm using a Versa Max microplate reader (Molecular Devices, Sunnyvale, CA, USA). The test was performed in triplicate.
Background: Broth dilution looks for growth in wells or tubes with falling amounts of substance.

Another data set relates to HaCaT cells. Kind of data set: Cytotoxicity, MTT assay. It counts as cell-based, human. The note with it: 50 µM, 24 h. Here is the method: We used the MTT assay to evaluate the toxicity of the peptides toward human skin epithelial cells (HaCaT) as previously described. Briefly, HaCaT cells were seeded at a density of 2 × 10^4 cells per well in 96-well microtiter plates in Dulbecco’s modified Eagle’s medium (DMEM) containing 10% foetal bovine serum (FBS) at 37 °C under 5% CO2 atmosphere. The next day, peptides were added to each well at various final concentrations (higher concentration of 200 µM). After 24 h incubation, culture supernatants were removed. 0.5 mg/mL MTT was added to each well, and the plates were incubated for 4 h at 37 °C. The medium was replaced by dimethyl sulfoxide (DMSO) to dissolve the formazan crystals formed in the wells. The absorbance at 570 nm was measured using a Versa-Max microplate ELISA reader (Molecular Devices). The viability rate was calculated using the following formula: Cell viability (%) = (absorbance of treated sample)/(absorbance of control) × 100.
For orientation: Tetrazolium dyes change colour on reduction, which living cells bring about.

In the next data set the test system is P. aeruginosa 27853. It counts as cell-based, Pseudomonas aeruginosa. Here is the method: as §1
The effects of various cations on the antibacterial activities of the parental and analogue peptides against P. aeruginosa 27853 were evaluated as previously described. Bacteria was treated with peptides at a final concentration 25 µM in the presence of physiological salts such as NaCl (50 mM, 100 mM, and 150 mM), CaCl2 (1.25 mM, 2.5 mM, and 5 mM), or MgCl2 (0.5 mM, 1 mM, and 2 mM). The MIC values were determined as described above.

The test system of data set [2] is P. aeruginosa strains (biofilm formation). It counts as cell-based, Pseudomonas aeruginosa. The note with it: 24 h, 37 °C, crystal violet OD595. Here is the method:
To evaluate the ability of bacterial strains to form biofilms either in the absence or presence of peptides, antibiotic-susceptible P. aeruginosa (ATCC 27853), and various strains of MDR P. aeruginosa were cultured in nutrient broth (NB). […]. The biofilms were fixed with 100% methanol for 15 min, stained with 0.1% crystal violet (CV) for 1 h, and rinsed three times with distilled water (dH2O). After the addition of 95% ethanol, biofilm mass was quantified by measuring OD at 595 nm using a Versa-Max microplate ELISA reader (Molecular Devices). Results were expressed as the percentage of biofilm formed with respect to the control. […] All experiments were performed at least in triplicate.

[3] abbreviates: P. aeruginosa 138 (multidrug-resistant), triplicate.
Where [4] appears, read: P. aeruginosa 431 (multidrug-resistant), triplicate.
Setting [5] is: P. aeruginosa 434 (multidrug-resistant), triplicate.
The mark [6] stands for this setting: P. aeruginosa 557 (multidrug-resistant), triplicate.
Setting [7] is: P. aeruginosa 559 (multidrug-resistant), triplicate.
Where [8] appears, read: P. aeruginosa 778 (multidrug-resistant), triplicate.
Where [9] appears, read: P. aeruginosa 1034 (multidrug-resistant), triplicate.
[10] abbreviates: P. aeruginosa 1162 (multidrug-resistant), triplicate.
Where [11] appears, read: P. aeruginosa 3290 (multidrug-resistant), triplicate.
Where [12] appears, read: P. aeruginosa 3399 (multidrug-resistant), triplicate.
Setting [13] is: P. aeruginosa 3543 (multidrug-resistant), triplicate.
Where [14] appears, read: P. aeruginosa 3592 (multidrug-resistant), triplicate.
Where [15] appears, read: P. aeruginosa 3904 (multidrug-resistant), triplicate.
Setting [16] is: P. aeruginosa 4007 (multidrug-resistant), triplicate.
The mark [17] stands for this setting: P. aeruginosa 4319 (multidrug-resistant), triplicate.
The mark [18] stands for this setting: P. aeruginosa 4891 (multidrug-resistant), triplicate.
Where [19] appears, read: P. aeruginosa 5018 (multidrug-resistant), triplicate.
Setting [20] is: P. aeruginosa 671973 (multidrug-resistant), triplicate.
The mark [21] stands for this setting: P. aeruginosa ATCC 27853, 2 × 10^5 CFU/mL, A600, triplicate.

Where two headings read alike, the source gives them in different places. Where no end group is shown, it is not given here.

Buforin2 [reference compound]: the MIC in data set [1] (setting [3]) turned out to be 12.5 µM; in data set [1] (setting [4]) it was 6.25 µM; in data set [1] (setting [5]) it was 6.25 µM; in data set [1] (setting [6]), 6.25 µM; in data set [1] (setting [7]), 12.5 µM; in data set [1] (setting [8]) it was 12.5 µM. For the same substance, the MIC turned out to be 6.25 µM in data set [1] (setting [9]); 12.5 µM in data set [1] (setting [10]); 6.25 µM in data set [1] (setting [11]); 12.5 µM in data set [1] (setting [12]); 12.5 µM in data set [1] (setting [13]); 3.13 µM in data set [1] (setting [14]). For the same substance, the MIC is on record as 6.25 µM in data set [1] (setting [15]); 12.5 µM in data set [1] (setting [16]); 12.5 µM in data set [1] (setting [17]); greater than 25 µM in data set [1] (setting [18]); 12.5 µM in data set [1] (setting [19]); 3.13 µM in data set [1] (setting [20]). In addition, the MIC in data set [1] (setting [21]) came out at 25 µM.

Turning to ILGKLWEGVKSI-NH2 [Hp1404-T1], the MIC in data set [1] (setting [3]), in data set [1] (setting [4]), in data set [1] (setting [5]), in data set [1] (setting [6]), in data set [1] (setting [7]) and in data set [1] (setting [8]) was greater than 25 µM throughout. Moreover, the MIC in data set [1] (setting [9]), in data set [1] (setting [10]), in data set [1] (setting [11]), in data set [1] (setting [12]), in data set [1] (setting [13]) and in data set [1] (setting [14]) was greater than 25 µM throughout. Also, the MIC in data set [1] (setting [15]), in data set [1] (setting [16]), in data set [1] (setting [17]), in data set [1] (setting [18]), in data set [1] (setting [19]) and in data set [1] (setting [20]) was greater than 25 µM each time. In data set [1] (setting [21]), the MIC is listed as greater than 25 µM.

Consider ILKKLLEGVKSI-NH2 [Hp1404-T1b], for which the MIC in data set [1] (setting [3]) was greater than 25 µM; in data set [1] (setting [4]), greater than 25 µM; in data set [1] (setting [5]), 25 µM; in data set [1] (setting [6]) it was greater than 25 µM; in data set [1] (setting [7]), greater than 25 µM; in data set [1] (setting [8]), greater than 25 µM. Moreover, the MIC in data set [1] (setting [9]) is greater than 25 µM; in data set [1] (setting [10]) it was greater than 25 µM; in data set [1] (setting [11]) it was greater than 25 µM; in data set [1] (setting [12]), greater than 25 µM; in data set [1] (setting [13]), greater than 25 µM; in data set [1] (setting [14]), 25 µM. The MIC in data set [1] (setting [15]), in data set [1] (setting [16]), in data set [1] (setting [17]), in data set [1] (setting [18]), in data set [1] (setting [19]) and in data set [1] (setting [20]) was greater than 25 µM each time. The MIC in data set [1] (setting [21]) is listed as greater than 25 µM.

As for ILKKLWEGVKSI-NH2 [Hp1404-T1a], the MIC in data set [1] (setting [3]) was greater than 25 µM; in data set [1] (setting [4]), 25 µM; in data set [1] (setting [5]), 25 µM; in data set [1] (setting [6]), greater than 25 µM; in data set [1] (setting [7]) it was greater than 25 µM; in data set [1] (setting [8]), greater than 25 µM. Besides, the MIC was greater than 25 µM in data set [1] (setting [9]); greater than 25 µM in data set [1] (setting [10]); greater than 25 µM in data set [1] (setting [11]); 25 µM in data set [1] (setting [12]); greater than 25 µM in data set [1] (setting [13]); 12.5 µM in data set [1] (setting [14]). The MIC is recorded as 25 µM in data set [1] (setting [15]); greater than 25 µM in data set [1] (setting [16]); greater than 25 µM in data set [1] (setting [17]); 25 µM in data set [1] (setting [18]); greater than 25 µM in data set [1] (setting [19]); 25 µM in data set [1] (setting [20]). The MIC in data set [1] (setting [21]) is greater than 25 µM.

For the substance ILKKLLKKVKSI-NH2 [Hp1404-T1d], the MIC in data set [1] (setting [3]) was 12.5 µM; in data set [1] (setting [4]), 3.13 µM; in data set [1] (setting [5]), 3.13 µM; in data set [1] (setting [6]), 3.13 µM; in data set [1] (setting [7]) it was 12.5 µM; in data set [1] (setting [8]), 3.13 µM. For the same substance, the MIC in data set [1] (setting [9]) was determined as 3.13 µM; in data set [1] (setting [10]), 1.56 µM; in data set [1] (setting [11]) it was 6.25 µM; in data set [1] (setting [12]) it was 1.56 µM; in data set [1] (setting [13]), 25 µM; in data set [1] (setting [14]), 3.13 µM. Also, the MIC in data set [1] (setting [15]) is 6.25 µM; in data set [1] (setting [16]) it was 6.25 µM; in data set [1] (setting [17]) it was 3.13 µM; in data set [1] (setting [18]), 3.13 µM; in data set [1] (setting [19]), 1.56 µM; in data set [1] (setting [20]), 1.56 µM. For the same substance, the MIC in data set [1] (setting [21]) was 1.56 µM; with P. aeruginosa 27853 (CaCl2 1.25 mM), 12.5 µM; against P. aeruginosa 27853 (CaCl2 2.5 mM), 25 µM; against P. aeruginosa 27853 (CaCl2 5 mM), greater than 25 µM; in the data set on P. aeruginosa 27853 (MgCl2 0.5 mM) it was 3.13 µM; in the data set with P. aeruginosa 27853 (MgCl2 1 mM) it was 6.25 µM. The MIC with P. aeruginosa 27853 (MgCl2 2 mM) came to 12.5 µM; against P. aeruginosa 27853 (NaCl 50 mM), 12.5 µM; against P. aeruginosa 27853 (NaCl 100 mM), 12.5 µM; in the data set on P. aeruginosa 27853 (NaCl 150 mM), 25 µM. In addition, the “survival rate of HaCaT cells” value with HaCaT cells turned out to be 33%. Further, the MBIC was found to be 12.5 µM in data set [2] (P. aeruginosa 434); 12.5 µM in data set [2] (P. aeruginosa 559); 12.5 µM in data set [2] (P. aeruginosa 778); 12.5 µM in data set [2] (P. aeruginosa 1034); 6.25 µM in data set [2] (P. aeruginosa 1162); 25 µM in data set [2] (P. aeruginosa 3399). Further, the MBIC in data set [2] (P. aeruginosa 3543) is recorded as greater than 50 µM; in data set [2] (P. aeruginosa 4007), 50 µM; in data set [2] (P. aeruginosa 27853, 5 × 10^5 CFU/mL, 0.2% glucose) it was 12.5 µM.
